Eleven compounds from US10172868B2, “Substituted quinazolines for inhibiting kinase activity” (NeuPharma, Inc., priority 2013, dated 2019) can be followed below.

In experiment [1] the test system is HCC827 cells. The experiment in a line: cells. Particulars: Homo sapiens, HCC827, 72 h, read-out: IC50 in HCC827 cells.
Experiment [2] concerns A431 cells. The experiment is described as follows: cells. The conditions noted are these: Homo sapiens, A-431, 72 h, read-out: IC50 in A431 cells.
Procedure: Taxol (as a positive control. Sigma) and compounds were dissolved in DMSO (Sigma), and the final concentration of DMSO in the medium was 1%. Tumor cells were plated in 96-well plates at densities of about 4000 cells/well of a 96-well plate and allowed to adhere/grow for 24 h. They were then treated with various concentrations of drug for 72 h, 3-(4,5-Dimethylthiazol-2-yl)-2,5-diphenyltetrazolium bromide (MTT, Sigma) was used to determine the number of viable cells at the time of compound addition and the number of cells remaining after 72 h compound exposure. The number of cells remaining after 72 h was compared to the number of viable cells at the time of compound addition by measuring the absorbance at 570 nm, allowing for the calculation of growth inhibition.
All concentrations of compounds were tested in triplicate and controls were averaged over 4 wells. IC50 was calculated by plotting the concentration of compound vs the percentage of inhibition in treated wells using GraphPad Prism 5.
The scale utilized in Tables 5 is as follows: +++ less than 100 nM; ++ between 100 nM and 500 nM; and + greater than 500 nM.
Experiment [3] concerns H1975 cells. The experiment in a line: Inhibition of cancer cell growth, MTT assay, H1975. The conditions noted are these: Homo sapiens, NCI-H1975, 72 h, read-out: IC50 in H1975 cells. On the technique in general: Tetrazolium dyes change colour on reduction, which living cells bring about.
In experiment [4] the test system is H3255 cells. The experiment is described as follows: Inhibition of cancer cell growth, MTT assay, H3255. Particulars: Homo sapiens, NCI-H3255, 72 h, read-out: IC50 in H3255 cells.
The target in experiment [5] is EGFR (ErbB1) (Homo sapiens (Human), UniProt P00533). The experiment is described as follows: Z'-LYTE kinase inhibition assay, EGFR. Particulars: for inhibition at 0.041 µM: read-out: % inhibition against EGFR (Compound at 0.041 μM); for IC50: read-out: IC50 against EGFR. It is filed as biochemical. The method in brief:
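IC50 values derived from 10-point, 3-fold compound dilution series (1% DMSO final) using Z'-LYTE fluorescence readout after 60-min development. Reaction: EGFR (1.1-5.25 ng) with 2 μM peptide, 60 min at room temperature in HEPES pH 7.5 buffer containing MgCl2, MnCl2, EGTA, DTT and BRIJ-35.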

Experiment [6] deals with EGFR (ErbB1) T790M L858R (Homo sapiens (Human), UniProt P00533, L858R/T790M). The experiment in a line: Z'-LYTE kinase inhibition assay, EGFR L858R/T790M. Particulars: for IC50: read-out: IC50 against EGFR L858R/T790M; for inhibition at 0.0137 µM: read-out: % inhibition against EGFR L858R/T790M (Compound at 0.0137 μM). Format: biochemical. The method in brief: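 IC50 taken from 10-point, 3-fold serial dilutions tested in 1% DMSO. The mutant kinase and peptide were prepared in HEPES pH 6.5 buffer with BRIJ-35, MgCl2, EGTA and NaN3, then reacted with ATP for 1 h at room temperature. Development reagent was added for a further hour before the fluorescence readout.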

Experiment [7] addresses BTK (Homo sapiens (Human), UniProt Q06187). The experiment is described as follows: Z'-LYTE kinase inhibition assay, BTK. Particulars: for IC50: read-out: IC50 against BTK. Format: biochemical. The method, then:
Inhibitory activities of compounds against BTK, EGFR and EGFR mutants (EGFR L858R, EGFR T790M, EGFR L858R/T790M), FGFR1, FGFR2, JAK2, JAK3 and KDR were measured by Invitrogen using Z'-LYTE® Method as briefly described in the following.
Test Compounds are screened in 1% DMSO (final) in the well. For 10 point titrations, 3-fold serial dilutions are conducted from the starting concentration. All ATP Solutions are diluted to a 4× working concentration in Kinase Buffer (50 mM HEPES pH 7.5, 0.01% BRIJ-35, 10 mM MgCl2, 1 mM EGTA). Peptide/Kinase Mixtures are diluted to a 2× working concentration in the appropriate Kinase Buffers as described below.
(v) Peptide/Kinase Mixtures for Measurement of BTK:
The 2×BTK/Tyr 01 mixture is prepared in 50 mM HEPES pH 7.5. 0.01% BRIJ-35, 10 mM MgCl2, 1 mM EGTA.
The mixture is then incubated for another 60-minute at room temperature for development reaction. Finally fluorescence is read by plate reader.
To determine IC50 of a compound against EGFR, EGFR mutant and other kinases, a series of concentrations of the compound were tested for the inhibition. […] The scale utilized in Table 4 is as follows: +++ less than 100 nM, ++ 100-500 nM and + greater than 500 nM.

Experiment [8] relates to H1975 tumor xenografts. The experiment is described as follows: Inhibition of tumor growth in H1975 xenograft model. Format: in vivo, BALB/c female nude mice. Particulars: QD x 14; for Tumor Volume Pre-treatment: baseline before treatment. On the procedure:
H1975 cells were implanted in BALB/c female nude mice and grown as tumor xenografts. When tumors achieved 120-200 mm^3, mice were assigned into treatment and control groups using randomized block design based upon their tumor volumes. Each group contained 6 tumor-bearing mice. Tumors were measured twice weekly in two dimensions using a caliper, and the tumor volume was calculated from two-dimensional measurements using the equation V=0.5×a×b^2 where a and b are the long and short diameters of the tumor, respectively. Relative tumor volume (RTV) was defined as TVt/TVi, the ratio of the volume on a given day (TVt) and the volume at the start of treatment (TVi). Relative tumor growth rate (T/C) was defined as RTVT/RTVC, the ratio of relative tumor volume of treatment group (RTVT) and relative tumor volume of control group (RTVC) on a given day.

[9] abbreviates: 30 mg/kg, Intraperitoneal injection.

EGFR (ErbB1), sequence (P00533 25-1210): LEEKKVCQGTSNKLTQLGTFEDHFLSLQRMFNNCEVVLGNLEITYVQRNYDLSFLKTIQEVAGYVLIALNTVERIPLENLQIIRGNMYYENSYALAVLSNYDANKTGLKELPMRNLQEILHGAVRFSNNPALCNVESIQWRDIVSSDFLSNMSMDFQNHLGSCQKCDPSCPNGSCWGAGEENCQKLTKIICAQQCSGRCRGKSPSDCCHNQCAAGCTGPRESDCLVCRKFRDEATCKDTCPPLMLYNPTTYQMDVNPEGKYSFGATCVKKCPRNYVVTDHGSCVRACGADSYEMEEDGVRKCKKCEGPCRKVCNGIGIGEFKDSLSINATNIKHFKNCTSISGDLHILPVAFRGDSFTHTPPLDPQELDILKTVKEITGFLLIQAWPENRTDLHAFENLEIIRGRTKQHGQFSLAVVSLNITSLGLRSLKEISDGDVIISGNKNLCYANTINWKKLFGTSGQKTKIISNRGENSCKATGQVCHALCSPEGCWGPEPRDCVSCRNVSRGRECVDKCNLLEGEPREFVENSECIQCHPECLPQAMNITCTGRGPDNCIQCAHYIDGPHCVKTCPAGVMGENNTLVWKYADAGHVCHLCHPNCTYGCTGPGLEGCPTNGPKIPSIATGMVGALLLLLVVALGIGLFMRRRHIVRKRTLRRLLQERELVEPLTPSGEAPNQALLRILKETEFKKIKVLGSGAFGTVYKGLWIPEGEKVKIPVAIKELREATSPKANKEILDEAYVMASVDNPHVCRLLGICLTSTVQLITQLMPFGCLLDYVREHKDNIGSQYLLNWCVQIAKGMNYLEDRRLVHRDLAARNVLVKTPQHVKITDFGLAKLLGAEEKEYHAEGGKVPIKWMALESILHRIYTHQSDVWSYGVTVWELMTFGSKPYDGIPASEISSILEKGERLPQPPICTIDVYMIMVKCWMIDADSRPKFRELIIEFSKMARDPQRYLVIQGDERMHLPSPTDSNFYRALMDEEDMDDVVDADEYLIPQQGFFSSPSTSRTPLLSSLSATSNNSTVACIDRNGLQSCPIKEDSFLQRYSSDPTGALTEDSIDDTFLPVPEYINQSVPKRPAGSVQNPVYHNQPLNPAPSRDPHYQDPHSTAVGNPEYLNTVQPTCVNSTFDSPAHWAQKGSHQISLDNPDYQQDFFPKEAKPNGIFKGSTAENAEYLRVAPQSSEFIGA
BTK, sequence (Q06187 whole entry): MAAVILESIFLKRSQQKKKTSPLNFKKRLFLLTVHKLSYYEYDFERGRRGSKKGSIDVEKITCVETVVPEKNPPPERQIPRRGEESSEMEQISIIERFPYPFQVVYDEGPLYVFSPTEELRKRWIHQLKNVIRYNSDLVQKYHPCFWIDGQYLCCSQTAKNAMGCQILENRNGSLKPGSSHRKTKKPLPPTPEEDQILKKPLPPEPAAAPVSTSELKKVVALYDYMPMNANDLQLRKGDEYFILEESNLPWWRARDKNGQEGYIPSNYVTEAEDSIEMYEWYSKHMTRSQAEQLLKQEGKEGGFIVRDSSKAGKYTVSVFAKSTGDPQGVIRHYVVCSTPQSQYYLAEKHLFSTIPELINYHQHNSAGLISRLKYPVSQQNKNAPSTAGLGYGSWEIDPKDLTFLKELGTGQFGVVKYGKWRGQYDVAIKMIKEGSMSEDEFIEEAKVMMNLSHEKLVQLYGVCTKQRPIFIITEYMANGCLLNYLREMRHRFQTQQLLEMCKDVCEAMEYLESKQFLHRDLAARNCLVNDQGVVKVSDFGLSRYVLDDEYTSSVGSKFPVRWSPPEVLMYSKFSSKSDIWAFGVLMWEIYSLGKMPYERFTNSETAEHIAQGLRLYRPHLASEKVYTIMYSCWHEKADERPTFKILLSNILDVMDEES
EGFR (ErbB1) T790M L858R, sequence (P00533 25-1210 T790M/L858R): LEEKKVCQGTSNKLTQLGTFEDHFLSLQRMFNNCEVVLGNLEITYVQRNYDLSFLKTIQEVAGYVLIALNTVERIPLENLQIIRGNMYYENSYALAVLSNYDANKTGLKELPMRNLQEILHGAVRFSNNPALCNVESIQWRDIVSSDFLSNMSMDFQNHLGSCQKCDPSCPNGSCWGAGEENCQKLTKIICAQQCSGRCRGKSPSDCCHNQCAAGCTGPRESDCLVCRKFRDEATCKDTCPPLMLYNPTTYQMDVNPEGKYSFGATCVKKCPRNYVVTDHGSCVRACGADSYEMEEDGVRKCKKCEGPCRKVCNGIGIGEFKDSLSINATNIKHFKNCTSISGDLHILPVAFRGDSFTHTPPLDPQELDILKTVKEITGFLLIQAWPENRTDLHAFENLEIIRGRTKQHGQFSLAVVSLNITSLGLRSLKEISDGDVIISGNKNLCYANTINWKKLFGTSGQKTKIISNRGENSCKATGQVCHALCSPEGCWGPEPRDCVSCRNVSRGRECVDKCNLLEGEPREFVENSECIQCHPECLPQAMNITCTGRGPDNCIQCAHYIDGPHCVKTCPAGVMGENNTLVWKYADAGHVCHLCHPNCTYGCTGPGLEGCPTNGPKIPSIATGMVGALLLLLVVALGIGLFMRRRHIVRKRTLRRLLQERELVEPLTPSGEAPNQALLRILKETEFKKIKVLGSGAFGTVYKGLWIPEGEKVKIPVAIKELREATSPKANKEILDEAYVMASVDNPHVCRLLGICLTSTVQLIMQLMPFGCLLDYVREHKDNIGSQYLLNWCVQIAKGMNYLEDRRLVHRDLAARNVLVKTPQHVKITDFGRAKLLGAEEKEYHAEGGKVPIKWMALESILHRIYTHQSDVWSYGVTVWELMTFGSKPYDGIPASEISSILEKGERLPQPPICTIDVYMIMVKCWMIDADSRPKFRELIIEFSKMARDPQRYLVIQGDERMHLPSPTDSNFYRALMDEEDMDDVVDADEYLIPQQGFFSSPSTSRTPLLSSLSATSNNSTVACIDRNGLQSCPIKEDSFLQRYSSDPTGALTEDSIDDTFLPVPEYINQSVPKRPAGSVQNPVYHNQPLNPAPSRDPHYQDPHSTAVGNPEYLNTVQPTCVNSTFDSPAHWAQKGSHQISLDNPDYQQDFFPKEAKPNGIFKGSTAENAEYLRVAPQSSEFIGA

Consider `C=CC(=O)Nc1cccc(-c2cccc3cnc(Nc4ccc(N5CCN(CC)CC5)cc4)nc23)c1` [Example C029, N-(3-(2-((4-(4-ethylpiperazin-1-yl)phenyl)amino)quinazolin-8-yl)phenyl)acrylamide], for which the IC50 in experiment [1] was < 100 nM; in experiment [2] it was 100 to 500 nM; in experiment [3], 100 to 500 nM; in experiment [4], > 500 nM. Further, the inhibition at 1 µM in experiment [5] (read-out: % inhibition against EGFR (Compound at 1 μM)) and in experiment [6] (read-out: % inhibition against EGFR L858R/T790M (Compound at 1 μM)) was > 50% in each case.
In the case of `C=CC(=O)Nc1cccc(-c2cccc3cnc(Nc4ccc(OC5CCN(C)CC5F)cc4)nc23)c1` (stereo not shown) [Example C079, N-(3-(2-((4-((3-fluoro-1-methylpiperidin-4-yl)oxy)phenyl)amino)quinazolin-8-yl)phenyl)acrylamide], the IC50 in experiment [2] is 100 to 500 nM; in experiment [3] it was < 100 nM; in experiment [4], 100 to 500 nM; in experiment [7], < 100 nM; in experiment [6], < 100 nM. Moreover, the inhibition at 0.041 µM in experiment [5] was < 50%.
For `C=CC(=O)Nc1cccc(-c2cccc3cnc(Nc4ccc(NC5CN(CCF)C5)cc4)nc23)c1` [Example C103, N-(3-(2-((4-((1-(2-fluoroethyl)azetidin-3-yl)amino)phenyl)amino)quinazolin-8-yl)phenyl)acrylamide], the IC50 in experiment [2] was < 100 nM. Moreover, in experiment [8] (setting [9]), the “T/C (relative tumor growth rate)” value is 35.8%, the “Tumor Volume Post-treatment” value came out at 748.7 mm^3 and the “Tumor Volume Pre-treatment” value was 150.9 mm^3. Also, in experiment [3], the IC50 was < 100 nM. The IC50 in experiment [4] lay in the range of 100 to 500 nM. Moreover, in experiment [5], the inhibition at 0.041 µM is < 50%. Also, in experiment [6], the inhibition at 0.0137 µM is > 50% and the IC50 was < 100 nM.
On to `C=CC(=O)Nc1cccc(-c2cccc3cnc(Nc4ccc(NC5CCN(C)CC5F)cc4)nc23)c1` (stereo not shown) [Example C105, N-(3-(2-((4-((3-fluoro-1-methylpiperidin-4-yl)amino)phenyl)amino)quinazolin-8-yl)phenyl)acrylamide], for which the IC50 in experiment [1] was < 100 nM; in experiment [2], 100 to 500 nM; in experiment [3], < 100 nM; in experiment [4], < 100 nM; in experiment [7] it was < 100 nM; in experiment [5], < 100 nM. In experiment [6], the IC50 was < 100 nM. The inhibition at 0.041 µM in experiment [5] is < 50%.
Regarding `C=CC(=O)Nc1cccc(-c2cccc3cnc(Nc4ccc(N5CCN(C)CC5=O)cc4)nc23)c1` [Example C106, N-(3-(2-((4-(4-methyl-2-oxopiperazin-1-yl)phenyl)amino)quinazolin-8-yl)phenyl)acrylamide], the IC50 in experiment [2] is < 100 nM; in experiment [3] it was < 100 nM; in experiment [4], 100 to 500 nM; in experiment [7], < 100 nM; in experiment [5] it was > 500 nM; in experiment [6], < 100 nM.
Turning to `C=CC(=O)Nc1cccc(-c2cccc3cnc(Nc4ccc(OCCOC)cc4)nc23)c1` [Example C107, N-(3-(2-((4-(2-methoxyethoxy)phenyl)amino)quinazolin-8-yl)phenyl)acrylamide], the IC50 in experiment [2] was < 100 nM; in experiment [3], < 100 nM; in experiment [4] it was 100 to 500 nM; in experiment [7], < 100 nM; in experiment [5], > 500 nM; in experiment [6], < 100 nM. Further, the “T/C (relative tumor growth rate)” value in experiment [8] (setting [9]) is 63.6%. The “Tumor Volume Post-treatment” value in experiment [8] (setting [9]) came out at 1341.7 mm^3. In addition, in experiment [8] (setting [9]), the “Tumor Volume Pre-treatment” value was 150.6 mm^3.
For the compound `C=CC(=O)Nc1cccc(-c2cccc3cnc(Nc4ccc(NC5CCN(C)CC5)cc4)nc23)c1` [Example C118, N-(3-(2-((4-((1-methylpiperidin-4-yl)amino)phenyl)amino)quinazolin-8-yl)phenyl)acrylamide], the IC50 in experiment [2] is < 100 nM; in experiment [3], < 100 nM; in experiment [4] it was 100 to 500 nM; in experiment [6], < 100 nM. For the same compound, the inhibition at 0.041 µM was > 50% in experiment [7] (compound at 0.041 μM, read-out: % inhibition against BTK) and > 50% in experiment [5]. Also, in experiment [6], the inhibition at 0.0137 µM was > 50%.
As to `C=CC(=O)Nc1cccc(-c2cccc3cnc(Nc4ccc(OC5CCN(C)CC5)cc4F)nc23)c1` [Example C141, N-(3-(2-((2-fluoro-4-((1-methylpiperidin-4-yl)oxy)phenyl)amino)quinazolin-8-yl)phenyl)acrylamide], the IC50 in experiment [1] is < 100 nM; in experiment [2], 100 to 500 nM; in experiment [3], < 100 nM; in experiment [4], 100 to 500 nM; in experiment [6] it was < 100 nM. In experiment [5], the inhibition at 0.041 µM is > 50%. The inhibition at 0.0137 µM in experiment [6] is > 50%.
In the case of `C=CC(=O)Nc1cccc(-c2cccc3cnc(Nc4ccc(N5CCN(CC(C)(C)O)CC5)cc4)nc23)c1` [Example C145, N-(3-(2-((4-(4-(2-hydroxy-2-methylpropyl)piperazin-1-yl)phenyl)amino)quinazolin-8-yl)phenyl)acrylamide], the IC50 in experiment [1] was < 100 nM; in experiment [2] it was 100 to 500 nM; in experiment [3] it was < 100 nM; in experiment [4], > 500 nM; in experiment [6] it was < 100 nM. Moreover, the inhibition at 0.041 µM in experiment [5] was < 50%. Also, the inhibition at 0.0137 µM in experiment [6] is > 50%.
As to `C=CC(=O)Nc1cccc(-c2cccc3cnc(Nc4ccc(N5CCN(CCO)CC5)cc4F)nc23)c1` [Example C147, N-(3-(2-((2-fluoro-4-(4-(2-hydroxyethyl)piperazin-1-yl)phenyl)amino)quinazolin-8-yl)phenyl)acrylamide], the IC50 in experiment [1] was < 100 nM; in experiment [2], 100 to 500 nM; in experiment [3], < 100 nM; in experiment [4], > 500 nM; in experiment [7], < 100 nM; in experiment [5] it was < 100 nM. Also, the IC50 in experiment [6] is < 100 nM. In addition, in experiment [8] (Table 7 study, 60 mg/kg, Oral), the “T/C (relative tumor growth rate)” value is 55.7%. For the same compound, the “Tumor Volume Post-treatment” value in experiment [8] (Table 7 study, 60 mg/kg, Oral) is 898 mm3. The “Tumor Volume Pre-treatment” value in experiment [8] (Table 7 study, 60 mg/kg, Oral) is reported as 240 mm3. In experiment [5], the inhibition at 0.041 µM was < 50%.
For `C=CC(=O)Nc1cccc(-c2cccc3cnc(Nc4ccc(N5CCN(C)CC5)c(F)c4F)nc23)c1` [Example C156, N-(3-(2-((2,3-difluoro-4-(4-methylpiperazin-1-yl)phenyl)amino)quinazolin-8-yl)phenyl)acrylamide], the IC50 in experiment [1] was < 100 nM; in experiment [2] it was 100 to 500 nM; in experiment [3], < 100 nM; in experiment [4] it was > 500 nM; in experiment [5], < 100 nM; in experiment [6], < 100 nM. For the same compound, in experiment [8] (Table 7 study, 60 mg/kg, Oral), the “T/C (relative tumor growth rate)” value was determined as 36.8%. Besides, in experiment [8] (Table 7 study, 60 mg/kg, Oral), the “Tumor Volume Post-treatment” value is on record as 594 mm3. Also, the “Tumor Volume Pre-treatment” value in experiment [8] (Table 7 study, 60 mg/kg, Oral) was 232 mm3.
